# Reference: publication PMC6151508, “Development of Novel Nrf2/ARE Inducers Bearing Pyrazino[2,1-a]isoquinolin Scaffold with Potent In Vitro Efficacy and Enhanced Physicochemical Properties” (Molecules : A Journal of Synthetic Chemistry and Natural …, 2017)
# Key:
# [1] = test system: antioxidant response element (ARE); assay: ARE luciferase reporter assay in HepG2-ARE-C8 cells; type: cell-based; conditions: HepG2-ARE-C8, 12 h of treatment, mean ± SD n = 3; for fold induction at 0.1 µM / fold induction at 1 µM / fold induction at 5 µM / fold induction at 10 µM / fold induction at 50 µM / fold induction at 100 µM: read-out: ARE Inductivity in Luciferase Reporter Assay (induction fold)
# Protocol: (§1) All the derivatives were evaluated for their ability to induce ARE in HepG2-ARE-C8 cell (HepG2 cells stably transfected with a luciferase reporter) by ARE luciferase reporter assay, and they were compared to the lead compound 2. At the same time, cytotoxicity studies were performed by the MTT assay against the HCT116 cells. The results of cytotoxic activity in vitro were expressed as the IC50 [18]. Because those compounds were designed for chemoprevention, they should not be cytotoxic.
# HepG2-ARE-C8 cells (4 × 10^4 cells/well) were incubated overnight in 96-well plates, and then treated with different concentrations of test compounds. tBHQ was used as a positive control, DMSO was used as a negative control, and the luciferase cell culture lysis reagent was used as a blank. The medium was removed after 12 h treatment. Then, the cells were harvested in the luciferase cell culture lysis reagent together with 100 μL of cold PBS. Then, centrifuging the solution and 20 μL of the supernatant was used for determining the luciferase activity. The luciferase activity was measured by a Luminoskan Ascent (Thermo Scientific, Waltham, MA, USA). The data were obtained in triplicate and expressed as fold induction over the control. Induction fold = (RLUtest − RLUblank)/(RLUDMSOcontrol − RLUblank). RLU = relative light unit l.
# NQO1 [2] = assay: Western blot of NQO1 protein level in HCT116; type: cell-based, human; conditions: tBHQ at 100 μM
# Source text: Compound 3g was selected to evaluate its capacity to activate the expression of Nrf2-regulated NQO1 by measuring the protein levels in HCT116 via Western Blot. […] Those data further confirmed that 3g bearing pyrido[1,2-a]pyrazin scaffold could elevate both Nrf2 and downstream proteins of Nrf2 at the cellular level.
# Anti-NQO1 (sc-271116), anti-Nrf2 (BS1258) and Anti-β-actin (AP0060) antibodies were purchased from Santa Cruz Biotechnology (Santa Cruz, CA, USA) and Bioworlde (Bioworlde, Visalia, CA, USA), respectively. The isolation of cell fractions and Western blotting were performed as detailed previously. Briefly, the extracts were separated by SDS-PAGE and then electrotransferred to PVDF membranes (Perkin Elmer, Northwalk, CT, USA). Membranes were blocked with 1% BSA for 1 h followed by incubation with a primary antibody at 4 °C overnight. Then they were washed and treated with a DyLight 800 labeled secondary antibody at 37 °C for 2 h. The membranes were screened through the odyssey infrared imaging System (LI-COR, Lincoln, NE, USA).
# colorectal adenomas = test system: colorectal adenomas; design: method as in PMID 24053646; conditions: AOM-DSS mouse model; cited from earlier work
# [3] = test system: antioxidant response element (ARE); design: method as in PMID 24053646; conditions: 10 μM, luciferase reporter assay; cited from earlier work
# Nrf2 = test system: Nrf2; design: method as in PMID 24053646; conditions: HCT116; cited from earlier work
# heme oxygenase-1 (HO-1) = test system: heme oxygenase-1 (HO-1); design: method as in PMID 24053646; conditions: HCT116; cited from earlier work
# NQO1 [4] = test system: NQO1; design: method as in PMID 24053646; conditions: HCT116; cited from earlier work
# [5] = MTT cell viability (cytotoxicity) assay; type: cell-based; conditions: human, HCT116 cells
# Protocol: as §1
# Cell viabilities were determined by using 3-[4,5-dimethylthiazol-2-yl]-2,5-diphenyltetrazolium bromide (MTT) assay. MTT was dissolved in (phosphate buffered solution) PBS to a concentration of 5 mg/mL. HCT116 cells (8 × 10^3 cells/well) were plated in 96-well plates and incubated overnight. Different concentrations of test compounds were added to each cell for 24 h at 37 °C, and the 20 μL MTT solution was added and incubated for an additional 4 h. Then, 100 μL of DMSO was added to dissolve formazan precipitate after the solution was removed. The OD value was determined at 570 nm by Elx800 absorbance microplate reader (BioTek, Winooski, VT, USA). IC50 value (concentration at which cell survival equals 50% of control) = […].
# [6] = log D pH 7.4 by potentiometric titration (Gemini Profiler, pION); type: physicochemical
# Source text: (§2) Ketoprofen and propranolol were chosen as a control.
# (§3) This is a new potentiometric acid−base titration method.
# [7] = pKa by potentiometric titration (Gemini Profiler, pION); type: physicochemical
# Source text: as §2, §3
# [8] = Parallel artificial membrane permeability assay (PAMPA by pION); conditions: pH 7.4
# Protocol: Then we evaluated the physicochemical properties of a selected series of our compounds. […] All of them were evaluated with pKa, partition coefficient (log D, pH 7.4), membrane permeability (Pe, pH 7.4) and water solubility. […] Permeability (Pe) was determined by a standard parallel artificial membrane permeability assay (PAMPA by pION).
# Permeability (Pe) was determined by a standard parallel artificial membrane permeability assay (PAMPA by pION).
# HCT116 cells = test system: HCT116 cells; design: method as in PMID 24053646; conditions: previously reported value; cited from earlier work
# [9] = Water solubility by pH-metric method (pSOL model 3); type: physicochemical
# Source text: as §3
SMILES,fold induction at 0.1 µM [1],fold induction at 1 µM [1],fold induction at 5 µM [1],fold induction at 10 µM ([1]; 10 μM),fold induction at 50 µM [1],fold induction at 100 µM ([1]; 100 μM),induction of ARE (previously reported) [3] [fold],melting point [°C],IC50 at 24 h [5] [µM],further results
"CC(C)(C)c1cc(O)ccc1O [tBHQ, tert-butylhydroquinone, reference compound]",1 ± 0.01,1.8 ± 0.66,1.67 ± 0.56,1.98 ± 0.29,4.45 ± 1.15,10.8,,,,ARE Inductivity in Luciferase Reporter Assay (induction fold) ([1]; 100 μM): 10.79 ± 3.13 fold; NQO1 protein level (Western blot) (NQO1 [2]): induced expression of NQO1
O=C(/C=C1\NCC2c3ccccc3CCN2C1=O)c1ccccc1 (stereo not shown) [Compound 1],,,,,,,26.87,,,development of colorectal adenomas (colorectal adenomas): significantly inhibit; nuclear translocation of Nrf2 (Nrf2): induce the nuclear translocation of Nrf2; expression of HO-1 (heme oxygenase-1 (HO-1)): induce; expression of NQO1 (NQO1 [4]): induce
"O=C(C=C1NCC2CCCCN2C1=O)c1cccc2ccccc12 (stereo not shown) [Compound 3j, 3-(2-(naphthalen-1-yl)-2-oxoethylidene)octahydro-4H-pyrido[1,2-a]pyrazin-4-one]",1.7 ± 0.19,2.34 ± 0.53,2.54 ± 0.99,3.52 ± 0.57,3.85 ± 0.34,1.96 ± 0.71,,151 to 153,264,
"CC(=O)Nc1cccc(C(=O)C=C2NCC3c4ccccc4CCN3C2=O)c1 (stereo not shown) [Compound 1c, N-(3-(2-(4-oxo-1,6,7,11b-tetrahydro-2H-pyrazino[2,1-a]isoquinolin-3(4H)-ylidene)acetyl)phenyl)acetamide]",0.8 ± 0.19,0.78 ± 0.36,2.3 ± 0.39,3.05 ± 0.53,3.09 ± 0.09,3.41 ± 0.65,,247 to 249,> 300,
"CC(=O)Nc1ccc(C(=O)C=C2NCC3c4ccccc4CCN3C2=O)cc1 (stereo not shown) [Compound 1d, N-(4-(2-(4-oxo-1,6,7,11b-tetrahydro-2H-pyrazino[2,1-a]isoquinolin-3(4H)-ylidene)acetyl)phenyl)acetamide]",1.24 ± 0.23,1.09 ± 0.72,1.49 ± 0.16,2.94 ± 1.9,7.14 ± 0.34,10.07 ± 0.05,,279 to 281,> 300,
O=C(/C=C1\NCC2c3ccccc3CCN2C1=O)c1cccc(F)c1 (stereo not shown) [Compound 2],1.45 ± 0.39,6.2 ± 4.06,16.2 ± 0.3,31.2,7.51 ± 1.32,12.2 ± 3.32,33.00,,165,"logD [6]: 2.38; pKa [7]: 2.78; Papp [8]: 11.7 ± 2.2 ×10⁻⁶ cm/s; IC50 (HCT116 cells): > 100 µM; ARE Inductivity in Luciferase Reporter Assay (induction fold) ([1]; 10 μM): 31.17 ± 4.14 fold; water solubility ([9]; pH 7.4): 22 µg/mL; solubility ([9]; water, pH 7.4, aqueous buffer, thermodynamic from solid): 22 µg/mL"
